The structures appear in SMILES notation.

Common to all, as to format: binding
Experiment [1] has as its target T1, Dat (dopamine N-acetyltransferase; Dat21-230) (Drosophila melanogaster, UniProt Q94521).
T1 construct: gene speck; truncated Dat residues 21-230 of 240; pGEX-6p3, GST tag cut by PreScission protease; E. coli BL21 (DE3)
The experiment in a line: X-ray crystallography (cocrystallization of Dat, Ac-CoA and PEA); NMR HSQC. The following applies: ternary complex with CoA; product formed in the crystal.

Experiment [2] deals with T1, Dat (dopamine N-acetyltransferase; Dat21-230). Kind of experiment: X-ray crystallography, cocrystal. Particulars: substrate pocket.
Experiment [3] has the same target. Kind of experiment: isothermal titration calorimetry. An excerpt: isothermal titration calorimetry on Dat (dopamine N-acetyltransferase; Dat21-230)

T1 sequence (Q94521 56-265): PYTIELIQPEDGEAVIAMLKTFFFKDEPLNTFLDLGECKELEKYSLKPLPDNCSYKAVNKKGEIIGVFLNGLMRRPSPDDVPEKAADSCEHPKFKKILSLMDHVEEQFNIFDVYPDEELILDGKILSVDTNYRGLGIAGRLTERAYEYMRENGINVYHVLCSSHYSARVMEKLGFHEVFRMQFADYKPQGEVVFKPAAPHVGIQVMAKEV

For the compound `CC(=O)NCCc1ccccc1` [Ac-PEA], the “X-ray crystallography (cocrystallization of Dat, Ac-CoA and PEA); NMR HSQC” value in experiment [1] was “crystals of Dat with two products, CoA and Ac-PEA (PDB code: 5GI7)”. Consider `CC(=O)NCCc1c[nH]c2ccccc12` [Ac-TRYP], for which the “X-ray crystallography, cocrystal” value in experiment [2] (ternary complex with CoA, 1.36 Å) is on record as “Dat/CoA/Ac-TRYP (representing the enzyme-products complex)”.

Take `OCCc1c[nH]c2ccccc12` [tryptophol]: the “X-ray crystallography, cocrystal” value in experiment [2] (ternary complex with Ac-CoA, dead-end analog of tryptamine, 1.28 Å) is “Dat/Ac-CoA/tryptophol (mimicking the enzyme-substrates complex)”. In experiment [3], `CC(C)(COP(=O)(O)OP(=O)(O)OC[C@H]1O[C@@H](n2cnc3c(N)ncnc32)[C@H](O)[C@@H]1OP(=O)(O)O)[C@@H](O)C(=O)NCCC(=O)NCCS` [CoA] gave an equilibrium dissociation constant (Kd) of 153 ± 26.5 µM. Still for that read-out and setting: then `CC(=O)SCCNC(=O)CCNC(=O)[C@H](O)C(C)(C)COP(=O)(O)OP(=O)(O)OC[C@H]1O[C@@H](n2cnc3c(N)ncnc32)[C@H](O)[C@@H]1OP(=O)(O)O` [Ac-CoA], with 5.51 ± 1.92 µM.
